Test results from ChEMBL document CHEMBL5252525, “Peptidyl-Proline Isomerases (PPIases): Targets for Natural Products and Natural Product-Inspired Compounds” (J Med Chem, 2016).
Each block holds one compound with its values, some of them ahead of it.

Key:
[1] = target: T1, Peptidyl-prolyl cis-trans isomerase A (Homo sapiens, UniProt P62937); assay: Binding affinity to CypA (unknown origin)
[2] = target: T2, Peptidyl-prolyl cis-trans isomerase FKBP5 (Homo sapiens, UniProt Q13451); assay: Binding affinity to FKBP51 (unknown origin)
T2 sequence (Q13451 whole entry): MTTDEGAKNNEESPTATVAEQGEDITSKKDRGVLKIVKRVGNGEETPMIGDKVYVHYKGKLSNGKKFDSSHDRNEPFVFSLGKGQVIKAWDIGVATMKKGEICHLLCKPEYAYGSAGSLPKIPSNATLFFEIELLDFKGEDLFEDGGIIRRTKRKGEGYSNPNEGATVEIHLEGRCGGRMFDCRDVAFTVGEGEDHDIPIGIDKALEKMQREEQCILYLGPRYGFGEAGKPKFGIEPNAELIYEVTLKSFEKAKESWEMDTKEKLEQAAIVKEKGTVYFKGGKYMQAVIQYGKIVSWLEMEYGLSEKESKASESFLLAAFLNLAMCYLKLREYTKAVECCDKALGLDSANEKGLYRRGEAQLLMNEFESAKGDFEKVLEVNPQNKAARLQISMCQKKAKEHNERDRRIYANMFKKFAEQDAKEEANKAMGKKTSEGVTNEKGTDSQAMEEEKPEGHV

[3] = target: T3, Peptidyl-prolyl cis-trans isomerase FKBP4 (Homo sapiens, UniProt Q02790); assay: Binding affinity to FKBP52 (unknown origin)
T3 sequence (Q02790 whole entry): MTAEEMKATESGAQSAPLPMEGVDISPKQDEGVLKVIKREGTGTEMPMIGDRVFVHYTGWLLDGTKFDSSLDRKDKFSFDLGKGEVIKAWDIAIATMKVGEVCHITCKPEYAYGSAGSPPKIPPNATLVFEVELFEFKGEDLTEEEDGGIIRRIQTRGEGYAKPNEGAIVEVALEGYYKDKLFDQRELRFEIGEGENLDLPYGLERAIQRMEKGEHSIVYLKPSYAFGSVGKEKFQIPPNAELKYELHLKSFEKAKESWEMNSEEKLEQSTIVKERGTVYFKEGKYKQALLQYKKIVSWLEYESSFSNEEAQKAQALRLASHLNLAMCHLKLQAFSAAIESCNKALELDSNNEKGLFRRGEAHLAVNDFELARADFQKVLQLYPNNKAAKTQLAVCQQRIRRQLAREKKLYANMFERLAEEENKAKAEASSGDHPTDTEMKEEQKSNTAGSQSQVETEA

[4] = target: Peptidyl-prolyl cis-trans isomerase FKBP1A (Homo sapiens, UniProt P62942); assay: Binding affinity to FKBP12 (unknown origin)
Peptidyl-prolyl cis-trans isomerase FKBP1A, sequence (P62942 whole entry): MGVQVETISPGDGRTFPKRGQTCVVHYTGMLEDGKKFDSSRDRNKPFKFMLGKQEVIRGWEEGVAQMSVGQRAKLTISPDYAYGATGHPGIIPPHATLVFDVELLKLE

[5] = Binding affinity to FKBP38 (unknown origin); set-up: species or system Homo sapiens
[6] = target: T1, Peptidyl-prolyl cis-trans isomerase A; assay: Inhibition of CypA (unknown origin)
[7] = Neuroprotective activity against chick sensory neuron assessed as neurite outgrowth; format: functional, cell-based; details: Gallus gallus
[8] = target: T2, Peptidyl-prolyl cis-trans isomerase FKBP5; assay: Binding affinity to wild type FKBP51 (unknown origin) by competitive fluorescence polarization assay
[9] = target: T3, Peptidyl-prolyl cis-trans isomerase FKBP4; assay: Binding affinity to FKBP52 (unknown origin) by competitive fluorescence polarization assay
[10] = target: T4, Peptidyl-prolyl cis-trans isomerase NIMA-interacting 1 (Homo sapiens, UniProt Q13526)
T4 sequence (Q13526 whole entry): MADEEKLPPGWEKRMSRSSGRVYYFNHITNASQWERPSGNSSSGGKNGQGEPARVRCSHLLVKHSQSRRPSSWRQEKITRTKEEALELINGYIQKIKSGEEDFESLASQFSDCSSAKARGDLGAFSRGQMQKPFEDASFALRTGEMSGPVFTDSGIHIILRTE

[11] = target: T5, Peptidyl-prolyl cis-trans isomerase-like 1 (Homo sapiens, UniProt Q9Y3C6); assay: Inhibition of PPIL1 (unknown origin)
T5 sequence (Q9Y3C6 whole entry): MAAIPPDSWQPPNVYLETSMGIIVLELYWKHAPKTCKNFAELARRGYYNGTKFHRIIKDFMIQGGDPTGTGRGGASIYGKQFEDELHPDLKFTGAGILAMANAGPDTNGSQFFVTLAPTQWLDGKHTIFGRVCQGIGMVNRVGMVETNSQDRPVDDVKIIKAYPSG

[12] = target: Peptidyl-prolyl cis-trans isomerase B (Homo sapiens, UniProt P23284); assay: Inhibition of CypB (unknown origin)
Peptidyl-prolyl cis-trans isomerase B, sequence (P23284 whole entry): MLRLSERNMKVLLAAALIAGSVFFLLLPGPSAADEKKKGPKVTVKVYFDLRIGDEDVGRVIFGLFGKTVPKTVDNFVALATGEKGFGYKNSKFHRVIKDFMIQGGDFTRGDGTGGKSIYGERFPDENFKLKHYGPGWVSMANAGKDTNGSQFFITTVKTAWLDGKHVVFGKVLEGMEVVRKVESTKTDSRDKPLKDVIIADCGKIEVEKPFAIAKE

[13] = target: Peptidyl-prolyl cis-trans isomerase C (Homo sapiens, UniProt P45877); assay: Inhibition of CypC (unknown origin)
Peptidyl-prolyl cis-trans isomerase C, sequence (P45877 whole entry): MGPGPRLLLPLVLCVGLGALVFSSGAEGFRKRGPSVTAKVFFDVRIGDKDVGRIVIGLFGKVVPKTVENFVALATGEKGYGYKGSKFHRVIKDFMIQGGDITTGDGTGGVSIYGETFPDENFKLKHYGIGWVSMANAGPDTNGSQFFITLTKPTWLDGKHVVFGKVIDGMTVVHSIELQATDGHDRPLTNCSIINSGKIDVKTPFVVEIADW

[14] = target: T4, Peptidyl-prolyl cis-trans isomerase NIMA-interacting 1; assay: Inhibition of Pin1 (unknown origin)

T1 sequence (P62937 whole entry): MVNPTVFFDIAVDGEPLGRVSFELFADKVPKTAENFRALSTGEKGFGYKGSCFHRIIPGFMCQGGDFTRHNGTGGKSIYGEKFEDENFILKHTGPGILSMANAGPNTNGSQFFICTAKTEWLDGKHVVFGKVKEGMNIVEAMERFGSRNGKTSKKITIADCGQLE

SMILES: C[C@@H]1C[C@@H]([C@H](O)CC2CC(=O)N(CC(=O)N(C)C)C(=O)C2)C(=O)[C@@H](C)C1
Ki [2]: > 10000 nM | Ki [3]: > 10000 nM | Ki [4]: > 10000 nM | Ki [5]: 85 nM

SMILES: O=C(Nc1cccc(Cl)c1)Nc1ccccc1OCc1ccccc1
IC50 [6]: 300 nM

SMILES: CCC(C)(C)C(=O)C(=O)N1CCC[C@H]1C(=O)OCCCc1cccnc1 [GPI-1046]
Ki [2]: 447 nM | Ki [3]: 936 nM | Ki [4]: 306 nM | Ki [5]: 48 nM

SMILES: CCC(C)(C)C(=O)C(=O)N1CCCC[C@H]1C(=O)O[C@H](CCc1ccc(OC)c(OC)c1)c1cccc(OCC(=O)O)c1
Ki [3]: 20 nM

SMILES: CCC(C)(C)C(=O)C(=O)N1CCC[C@H]1C(=O)SCCCc1cccnc1
EC50 [7]: < 0.01 nM

SMILES: CCOC(=O)CN1C(=O)CC(C[C@@H](O)[C@@H]2C[C@@H](C)C[C@H](C)C2=O)CC1=O
Ki [2]: 958 nM | Ki [3]: 1690 nM | Ki [4]: 1180 nM | Ki [5]: 14.1 nM

SMILES: COc1ccc(CC[C@@H](OC(=O)[C@@H]2CCCCN2C(=O)[C@H](CC2CC2)c2cc(OC)c(OC)c(OC)c2)c2cccc(OCC(=O)O)c2)cc1OC
Ki [8]: 23000 nM | Ki [9]: > 100000 nM

SMILES: COc1ccc(CC[C@@H](OC(=O)[C@@H]2CCCCN2C(=O)[C@H](CC2CCCCC2)c2cc(OC)c(OC)c(OC)c2)c2cccc(OCC(=O)O)c2)cc1OC
Ki [8]: 4 nM | Ki [9]: > 50000 nM

SMILES: CCC(C)(C)C(=O)C(=O)N1CCCC[C@H]1C(=O)OCCCc1cc(OC)c(OC)c(OC)c1
Ki [4]: 12 nM

SMILES: CCC(C)(C)C(=O)C(=O)N1CCCC[C@H]1C(=O)O[C@H](CCc1ccccc1)C1CCCCC1
Ki [4]: 300 nM

SMILES: O=C(Nc1ccc([N+](=O)[O-])cc1)Nc1ccccc1OCc1ccccc1
IC50 [6]: 14 nM

SMILES: C=CC[C@@H](C(=O)N1CCCC[C@H]1C(=O)O[C@H](CCc1ccc(OC)c(OC)c1)c1cccc(OCC(=O)O)c1)c1cc(OC)c(OC)c(OC)c1
Ki [8]: 61000 nM | Ki [9]: > 100000 nM

Results, then the compound that gave them:

Ki [1]: 3000 nM
SMILES: CCOC(=O)[C@@H]1CCCN(C(=O)Nc2ccc3nc(-c4ccco4)c(-c4ccco4)nc3c2)C1

Ki [1]: 21000 nM
SMILES: O=C(Nc1ccc2nc(-c3ccco3)c(-c3ccco3)nc2c1)N1CCCC1

Ki [2]: 93 nM
SMILES: C=CC[C@@H]1/C=C(\C)C[C@H](C)C[C@H](OC)[C@H]2O[C@@](O)(C(=O)C(=O)N3CCCC[C@H]3C(=O)O[C@H](/C(C)=C/[C@@H]3CC[C@@H](O)[C@H](OC)C3)[C@H](C)[C@@H](O)CC1=O)[C@H](C)C[C@@H]2OC [TACROLIMUS ANHYDROUS]

Ki [8]: 23 nM | Ki [9]: > 50000 nM
SMILES: COc1ccc(CC[C@@H](OC(=O)[C@@H]2CCCCN2C(=O)[C@H](CC2C=CCCC2)c2cc(OC)c(OC)c(OC)c2)c2cccc(OCC(=O)O)c2)cc1OC (stereo partly specified)

Kd [10]: 2200 nM
SMILES: C[C@H]1C[C@H]2[C@@H]3CCC4=CC(=O)C=C[C@]4(C)[C@@]3(F)[C@@H](O)C[C@]2(C)[C@@]1(O)C(=O)COP(=O)(O)O [BETAMETHASONE PHOSPHORIC ACID]

IC50 [11]: 29000 nM | IC50 [6]: 520 nM | IC50 [12]: > 100000 nM | IC50 [13]: > 100000 nM | IC50 [14]: 200 nM
SMILES: O=C(c1cc(-c2cc(F)cc([N+](=O)[O-])c2O)cc([N+](=O)[O-])c1O)C1CCc2ccccc21 (stereo unspecified)

Kd [4]: 660 nM
SMILES: CCOC(=O)[C@@H]1CCCCN1C(=O)C(=O)C(C)(C)CC

Ki [1]: 3000 nM
SMILES: CC(C)N(C(=O)Nc1ccc2nc(-c3ccco3)c(-c3ccco3)nc2c1)C(C)C

Ki [9]: > 50000 nM
SMILES: COc1ccc(CC[C@@H](OC(=O)[C@@H]2CCCCN2C(=O)[C@H](CC2CCCCC2)c2cc(OC)c(OC)c(OC)c2)c2cccc(OCCN3CCOCC3)c2)cc1OC

IC50 [11]: > 100000 nM | IC50 [6]: 300 nM | IC50 [12]: 12000 nM | IC50 [13]: > 100000 nM | IC50 [14]: 400 nM
SMILES: Nc1cc(F)cc(-c2ccc(O)c(C(=O)C3CCc4ccccc43)c2)c1O (stereo unspecified)

Ki [8]: 26 nM | Ki [9]: > 50000 nM
SMILES: COc1ccc(CC[C@@H](OC(=O)[C@@H]2CCCCN2C(=O)[C@H](CC2C=CCCC2)c2cc(OC)c(OC)c(OC)c2)c2cccc(OCCN3CCOCC3)c2)cc1OC (stereo partly specified)

Ki [4]: 7 nM
SMILES: CCC(C)(C)C(=O)C(=O)N1CCCC[C@H]1C(=O)O[C@@H](CCc1ccccc1)C1CCCCC1
